Data published in patent US20230002352A1, “SULFONAMIDE DERIVATIVES AS CTPS1 INHIBITORS” (Step Pharma S.A.S., priority 2019, published 2023).
pIC50: −log10 of the molar value.

test system: human CTPS1 versus CTPS2; assay: Human CTPS1 versus CTPS2 selectivity assessment by RapidFire/MS analysis; format: biochemical; conditions: Table 26
Description: Biological Example 2—RapidFire/MS-Based Enzyme Selectivity Assays.
Human CTPS1 Versus CTPS2 Selectivity Assessment by RapidFire/MS Analysis.
The enzyme inhibitory activities against each target isoform of interest may be determined for the compounds of the invention using an optimised RapidFire high-throughput mass spectrometry (RF/MS) assay format. RF/MS assays for both human CTPS1 and CTPS2 may be performed in assay buffer consisting of 50 mM HEPES (Merck), 20 mM MgCl2, 5 mM KCl, 1 mM DTT, 0.01% Tween-20, pH to 8.0 accordingly. Human full-length active C-terminal FLAG-His-tag CTPS1 (UniProtKB-P17812, CTPS[1-591]-[…]) may be obtained from Proteros biostructures GmbH. Human full length active C-terminal FLAG-His-Avi tagged CTPS2 (UniProtKB-Q9NRF8, CTPS2 [1-586]-[…]) may be obtained from Harker Bio.
Human CTPS (1 or 2) protein may be prepared in 1× assay buffer to the final working protein concentration required for the reaction. A 2 uL volume per well of 2×CTPS (1 or 2) protein may be mixed with 40 nL of compound using acoustic (ECHO) delivery and incubated for 10 minutes at 25° C. Each isoform enzymatic reaction may be subsequently initiated by addition of 2 uL per well of a 2× substrate mix in assay buffer. For hCTPS1: ATP (0.3 mM), UTP (0.2 mM), GTP (0.07 mM) and L-glutamine (0.1 mM). For hCTPS2: ATP (0.1 mM), UTP (0.04 mM), GTP (0.03 mM) and L-glutamine (0.1 mM). Each mixture may be incubated for an appropriate amount of time per isoform within the determined linear phase of the reaction at 25° C. A 60 uL volume of stop solution (1% formic acid with 0.5 uM ^13C9-^15N3-CTP in H2O) may be added and the plate immediately heat-sealed and centrifuged for 10 minutes at 4,000 rpm. Following centrifugation, plates may be loaded onto the Agilent RapidFire microfluidic solid phase extraction system coupled to an AP14000 triple quadrupole mass spectrometer (RF/MS) for analysis.
In all cases, the enzyme converts UTP to CTP. Highly specific and sensitive multiple reaction monitoring (MRM) MS methods may be optimised for the detection of the enzymatic reaction product, CTP, and the stable isotope labelled product standard ^13C9-^15N3-CTP. Readout for data analysis may be calculated as the ratio between the peak area of the product CTP and the internal standard ^13C9-^15N3-CTP. For data reporting, the following equation may be used: […]
For each screening plate, the means of the negative (DMSO) and positive control values were used for the calculation of the respective assay window (S/B) and Z′ values. The median of the respective control values was used for calculation of percent inhibition according to the following equation: […]
Percentage inhibition was then plotted against compound concentration, and the 50% inhibitory concentration (IC50) was determined from the resultant concentration-response curve.
Fold selectivity between CTPS1 and CTPS2 was subsequently calculated according to the following equation: […]

SMILES | Selectivity (fold selectivity between CTPS1 and CTPS2)
CCOc1cncc(-c2ccc(NC(=O)C(F)(CC)c3ccnc(NS(=O)(=O)C4CC4)n3)nc2)n1 (racemic) [Example P112, 2-(2-(Cyclopropanesulfonamido)pyrimidin-4-yl)-N-(5-(6-ethoxypyrazin-2-yl)pyridin-2-yl)-2-fluorobutanamide] | ++ (>30-60 fold (++))
CCOc1cncc(-c2ccc(NC(=O)C(F)(CC)c3ccnc(NS(=O)(=O)C4CC4)n3)nc2)n1 (single isomer, unassigned) [Example P113, 2-(2-(cyclopropanesulfonamido)pyrimidin-4-yl)-N-(5-(6-ethoxypyrazin-2-yl)pyridin-2-yl)-2-fluorobutanamide] | + (2-30 fold (+))
CCOc1cncc(-c2ccc(NC(=O)C(F)(CC)c3ccnc(NS(=O)(=O)C4CC4)n3)nc2)n1 (single isomer, unassigned) [Example P114, 2-(2-(cyclopropanesulfonamido)pyrimidin-4-yl)-N-(5-(6-ethoxypyrazin-2-yl)pyridin-2-yl)-2-fluorobutanamide] | +++ (>60 fold (+++))
CCOc1cncc(-c2ccc(NC(=O)C(F)(CC)c3cncc(NS(=O)(=O)C4CC4)n3)nc2)n1 (single isomer, unassigned) [Example P206] | +++ (>60 fold (+++))
CCOc1cncc(-c2ccc(NC(=O)C(F)(CC)c3cncc(NS(=O)(=O)C4CC4)n3)nc2)n1 (single isomer, unassigned) [Example P207] | + (2-30 fold (+))
CCC(C(=O)Nc1ccc(-c2cncc(Cl)c2)cc1)c1ccnc(NS(=O)(=O)C2CC2)n1 (stereo not drawn) [Example P1, N-(4-(5-Chloropyridin-3-yl)phenyl)-2-(2-(cyclopropanesulfonamido)pyrimidin-4-yl)butanamide] | + (2-30 fold (+))
CC(C)Oc1cncc(-c2ccc(NC(=O)C(C)(C)c3ccnc(NS(=O)(=O)C4CC4)n3)nc2)n1 [Example P9] | +++ (>60 fold (+++))
CCC(C(=O)Nc1ccc(-c2cncc(C(F)(F)F)n2)cn1)c1ccnc(NS(=O)(=O)C2CC2)n1 (stereo not drawn) [Example P87] | ++ (>30-60 fold (++))
CCOc1cncc(-c2ccc(NC(=O)C(CC)c3ccnc(NS(=O)(=O)C4CC4)n3)nc2)n1 (stereo not drawn) [Example P88] | +++ (>60 fold (+++))
CCC(C(=O)Nc1ccc(-c2cncc(OC(C)C)n2)cn1)c1ccnc(NS(=O)(=O)C2CC2)n1 (stereo not drawn) [Example P89] | +++ (>60 fold (+++))
CCC(C(=O)Nc1ccc(-c2cncc(OC)n2)cc1F)c1ccnc(NS(=O)(=O)C2CC2)n1 (stereo not drawn) [Example P95] | + (2-30 fold (+))
CCOc1cncc(-c2ccc(NC(=O)C(CC)c3ccnc(NS(=O)(=O)C4CC4)n3)c(F)c2)n1 (stereo not drawn) [Example P96] | + (2-30 fold (+))
CCC(C(=O)Nc1ccc(-c2cncc(OCC(F)(F)F)n2)cc1F)c1ccnc(NS(=O)(=O)C2CC2)n1 (stereo not drawn) [Example P98] | +++ (>60 fold (+++))
CCC(C(=O)Nc1ccc(-c2cncc(C(F)(F)F)n2)cc1)c1ccnc(NS(=O)(=O)C2CC2)n1 (stereo not drawn) [Example P103] | + (2-30 fold (+))
CCOc1cncc(-c2ccc(NC(=O)C(CC)c3ccnc(NS(=O)(=O)C4CC4)n3)cc2)n1 (stereo not drawn) [Example P105, 2-(2-(Cyclopropanesulfonamido)pyrimidin-4-yl)-N-(4-(6-ethoxypyrazin-2-yl)phenyl)butanamide] | ++ (>30-60 fold (++))
CCC(C(=O)Nc1ccc(-c2cncc(OCC(F)(F)F)n2)cc1)c1ccnc(NS(=O)(=O)C2CC2)n1 (stereo not drawn) [Example P108] | +++ (>60 fold (+++))
CCOc1cncc(-c2ccc(NC(=O)C(CCOC)c3ccnc(NS(=O)(=O)C4CC4)n3)cc2)n1 (stereo not drawn) [Example P110] | ++ (>30-60 fold (++))
CCOc1cncc(-c2ccc(NC(=O)C(CC)c3cccc(NS(=O)(=O)C4CC4)n3)nc2)n1 (stereo not drawn) [Example P188] | ++ (>30-60 fold (++))
CCOc1cncc(-c2ccc(NC(=O)C(CC)c3cccc(NS(=O)(=O)C4CC4)n3)cc2)n1 (stereo not drawn) [Example P191] | ++ (>30-60 fold (++))
CCOc1cncc(-c2ccc(NC(=O)C(C)(CCOC)c3cncc(NS(=O)(=O)C4CC4)n3)nc2)n1 (stereo not drawn) [Example P198] | +++ (>60 fold (+++))
CCOc1cncc(-c2ccc(NC(=O)C(F)(CC)c3cncc(NS(=O)(=O)C4CC4)n3)nc2)n1 (stereo not drawn) [Example P200] | ++ (>30-60 fold (++))
CCOc1cncc(-c2ccc(NC(=O)C(CC)c3cncc(NS(=O)(=O)C4CC4)n3)nc2)n1 (stereo not drawn) [Example P201] | +++ (>60 fold (+++))
CCOc1cncc(-c2ccc(NC(=O)C(CC)c3cncc(NS(=O)(=O)C4CC4)n3)cc2)n1 (stereo not drawn) [Example P202] | +++ (>60 fold (+++))
CCOc1cncc(-c2ccc(NC(=O)C(C)(OC)c3cncc(NS(=O)(=O)C4CC4)n3)nc2)n1 (stereo not drawn) [Example P205a] | +++ (>60 fold (+++))
CCOc1cncc(-c2ccc(NC(=O)C(C)(OC)c3cncc(NS(=O)(=O)C4CC4)n3)nc2)n1 (stereo not drawn) [Example P205b] | ++ (>30-60 fold (++))
CCOc1cncc(-c2ccc(C(=O)NC(CC)c3ccnc(NS(=O)(=O)C4CC4)n3)c(F)c2)n1 (stereo not drawn) [Example P216] | +++ (>60 fold (+++))

same assay, conditions: Table 27

SMILES | Selectivity (fold selectivity between CTPS1 and CTPS2)
CCOc1cncc(-c2ccc(NC(=O)C3(c4ccnc(NS(=O)(=O)C5CC5)n4)CCC(O)CC3)nc2)n1 (single isomer, unassigned) [Example P227, 1-(2-(cyclopropanesulfonamido)pyrimidin-4-yl)-N-(5-(6-ethoxypyrazin-2-yl)pyridin-2-yl)-4-hydroxycyclohexanecarboxamide] | +++ (>60 fold (+++))
CCOc1cncc(-c2ccc(NC(=O)C3(c4ccnc(NS(=O)(=O)C5CC5)n4)CCC(O)CC3)nc2)n1 (single isomer, unassigned) [Example P228, 1-(2-(cyclopropanesulfonamido)pyrimidin-4-yl)-N-(5-(6-ethoxypyrazin-2-yl)pyridin-2-yl)-4-hydroxycyclohexanecarboxamide] | + (2-30 fold (+))

target: T1, human CTPS1 (Homo sapiens, UniProt P17812); assay: Human CTPS1 enzyme inhibition (ADP-Glo Max assay); format: biochemical; conditions: Table 24; ADP-Glo Max assay; read-out: CTPS1 (Human CTPS1 Enzyme Inhibition data grouped by potency range, IC50)
T1 construct: purchased Proteros biostructures GmbH
T1 sequence (P17812 1-591): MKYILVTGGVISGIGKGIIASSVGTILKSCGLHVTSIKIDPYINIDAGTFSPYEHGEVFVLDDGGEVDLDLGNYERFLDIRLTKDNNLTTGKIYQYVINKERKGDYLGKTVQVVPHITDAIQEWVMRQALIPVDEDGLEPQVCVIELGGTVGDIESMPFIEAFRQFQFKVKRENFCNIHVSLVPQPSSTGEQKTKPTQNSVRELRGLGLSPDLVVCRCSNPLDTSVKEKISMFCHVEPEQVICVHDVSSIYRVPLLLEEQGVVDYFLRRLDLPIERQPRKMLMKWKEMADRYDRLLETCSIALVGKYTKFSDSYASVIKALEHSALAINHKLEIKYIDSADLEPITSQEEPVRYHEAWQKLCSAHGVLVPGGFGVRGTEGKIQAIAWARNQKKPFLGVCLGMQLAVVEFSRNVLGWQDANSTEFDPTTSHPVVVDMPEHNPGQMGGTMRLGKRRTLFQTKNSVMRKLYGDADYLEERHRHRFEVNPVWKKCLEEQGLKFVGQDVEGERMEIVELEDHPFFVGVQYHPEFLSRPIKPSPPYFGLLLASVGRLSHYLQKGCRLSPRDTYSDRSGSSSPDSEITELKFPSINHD
Method in brief: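 Full-length FLAG-His-tagged human CTPS1 and compound were preincubated 10 min at 25 °C in 50 mM Tris pH 8.0, 10 mM MgCl2, 0.01% Tween-20, 2 mM L-cysteine. Substrate mix: ATP 0.31 mM, GTP 0.034 mM, UTP 0.48 mM, glutamine 0.186 mM; linear-phase reaction at 25 °C. ADP-Glo Max luminescence; IC50 from inhibition curve.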

pIC50 | SMILES
≥ 7.00 | CCOc1cncc(-c2ccc(NC(=O)C3(c4ccnc(NS(=O)(=O)C5CC5)n4)CCC(O)CC3)nc2)n1 (single isomer, unassigned) [Example P227, 1-(2-(cyclopropanesulfonamido)pyrimidin-4-yl)-N-(5-(6-ethoxypyrazin-2-yl)pyridin-2-yl)-4-hydroxycyclohexanecarboxamide]
5.00 to 6.00 | CCOc1cncc(-c2ccc(NC(=O)C3(c4ccnc(NS(=O)(=O)C5CC5)n4)CCC(O)CC3)nc2)n1 (single isomer, unassigned) [Example P228, 1-(2-(cyclopropanesulfonamido)pyrimidin-4-yl)-N-(5-(6-ethoxypyrazin-2-yl)pyridin-2-yl)-4-hydroxycyclohexanecarboxamide]
